Data: patent US20240132461A1, “FLAVONE DEAZA SPERMIDINE ANALOGUES AND THEIR USE TREATING CANCER” (FLORATEK PHARMA S.A., priority 2021, published 2024)
Counter-ions that a name gives are not always drawn.

Legend:
NCI-H1299 = assay: Cell viability assay, non-small cell lung carcinoma cell line NCI-H1299; type: cell-based; details: Homo sapiens
Description: (§1) Antitumor activity of the compounds and doxorubicin as a positive control was assessed by using the CellTiter-Blue Cell Viability Assay (Promega, #G8082) or CellTiter-Glow® Luminescent Cell Viability assay (Promega # G7572) according to the manufacturer's instructions. The compounds were tested at 5 or 6 concentrations in half-log increments (highest concentration 30 μM-100 μM) in duplicate or triplicate well conditions.
(§2) Tumor cells were grown at 37° C. in a humidified atmosphere with 5% CO2 in RPMI 1640 or DMEM medium, supplemented with 10% (v/v) fetal calf serum and 50 μg/ml gentamicin for up to 20 passages, and were passaged once or twice weekly. Cells were harvested using TrypLE or PBS buffer containing 1 mM EDTA, and the percentage of viable cells is determined using a CASY Model TT cell counter (OMNI Life Science). Cells were harvested from exponential phase cultures, counted and plated in 96 well flat-bottom microtiter plates at a cell density depending on the cell line's growth rate (4,000-20,000 cells/well depending on the cell line's growth rate, up to 60,000 for hematological cancer cell lines) in RPMI 1640 or DMEM medium supplemented with 10% (v/v) fetal calf serum and 50 μg/ml gentamicin (140 μl/well). Cultures were incubated at 37° C. and 5% CO2 in a humidified atmosphere. After 24 h, 10 μl of test compounds or control medium are added, and left on the cells for another 72 h. Compounds were serially diluted in DMSO, transferred in cell culture medium, and added to the assay plates. The DMSO concentration was kept constant at <0.3% v/v across the assay plate. Viability of cells was quantified by the CellTiter-Blue® cell viability assay (Promega G8081) or CellTiter-Glow® Luminescent Cell Viability assay (Promega # G7572). Fluorescence (FU) was measured by using the EnSpire® multimode plate reader (Perkin Elmer) (excitation λ=570 nm, emission λ=600 nm) or luminescent detection of ATP in viable cells was used as parameter for proliferation. Luminescence was measured with the microplate luminometer (Promega or Perkin Elmer).
(§3) Sigmoidal concentration-response curves were fitted to the data points (test-versus-control, T/C values) obtained for each tumor model using 4 parameter non-linear curve fit (Charles River DRS Datawarehouse Software) or with GraphPad prism 5.02 software. IC50 values are reported as absolute IC50 values, being the concentration of test compound at the intersection of the concentration-response curves with T/C=50%

SC6 = assay: PDX cytotoxicity assay, small cell lung carcinoma PDX SC6; type: cell-based
Description: PDX-derived cell cultures were obtained from tumors explanted from mice and isolated by mechanical and enzymatic dissociation. […] Cells were harvested and seeded in 96-wells plates at a density of 1.25 to 5×10^3 cells/well for cytotoxicity assays. Cells were incubated 48 h at 37° C. prior to addition of test molecules and vehicle (DMSO, 0.1%) at desired final concentrations. Cell viability was assessed before drugs' addition (T0) and 5 days after test molecules addition by measuring ATP cell content using CellTiter-Glo® Luminescent Cell Viability Assay (Promega) according to the manufacturer's instructions. Luciferase activity was measured on a luminometer (PerkinElmer® EnVision™). Each concentration of compounds was tested in triplicate.
Viability was calculated as a percentage of ATP value compared to vehicle treated controls.
For PDX primary cell cultures, the tumour tissue was washed with PBS containing antibiotic-antimycotic and non-tumour tissue and necrotic tumour tissues were separated. The tumour tissue was transferred to a new dish and cut into 1˜2 mm^3 fragments, resuspended in RPMI-1640 medium and centrifuged at 1,200 rpm for 6 min at room temperature. The pelleted material was resuspended with 15 mL of Tumour Cell Digestion Solution and incubated at 37° C. for 1 hour with agitation. […]

A375 = assay: Cell viability assay, melanoma cell line A375; type: cell-based; details: Homo sapiens, A-375
Description: as §1, §2, §3

melanoma cell lines = assay: Cell viability assay, melanoma cell lines (summary); type: cell-based; details: summary of Tables 14A and 14B; read-out: IC50s, melanoma cell lines growth
Description: as §1, §2, §3

Panc-1 = assay: Cell viability assay, pancreatic carcinoma cell line Panc-1; type: cell-based; details: Homo sapiens; Panc-1 pancreatic carcinoma cell line
Description: as §1, §2, §3

MIA-Pa-Ca-2 = assay: Cell viability assay, pancreatic carcinoma cell line MIA-Pa-Ca-2; type: cell-based; details: Homo sapiens, MIA PaCa-2; MIA-Pa-Ca-2 pancreatic carcinoma cell line
Description: as §1, §2, §3

[1] = test system: pancreatic carcinoma cell; assay: Cell viability assay, pancreatic carcinoma cell lines (summary); type: cell-based; details: summary of Table 12; read-out: IC50s, pancreatic carcinoma cell growth
Description: as §1, §2, §3

U-87MG = assay: Cell viability assay, brain carcinoma cell line U-87MG; type: cell-based; details: Homo sapiens; U-87MG brain carcinoma cell line, 72 h, absolute IC50
Description: as §1, §2, §3

LN-229 = assay: Cell viability assay, brain carcinoma cell line LN-229; type: cell-based; details: Homo sapiens; LN-229 brain carcinoma cell line, 72 h, absolute IC50
Description: as §1, §2, §3

SH-SY-5Y = assay: Cell viability assay, brain carcinoma cell line SH-SY-5Y; type: cell-based; details: Homo sapiens, SH-SY5Y; SH-SY-5Y brain carcinoma cell line, 72 h, absolute IC50
Description: as §1
as §2, with “Elmer). […]” for “Elmer).”

U-251 = assay: Cell viability assay, brain carcinoma cell line U-251; type: cell-based; details: Homo sapiens; U-251 brain carcinoma cell line, 72 h, absolute IC50
Description: as §1, §2, §3

MDA-MB-468 = assay: Cell viability assay, breast carcinoma cell line MDA-MB-468; type: cell-based; details: Homo sapiens; MDA-MB-468 breast carcinoma cell line
Description: as §1
as §2, with “Elmer). […]” for “Elmer).”

HL-60 = assay: Cell viability assay, acute promyelocytic leukemia cell line HL-60; type: cell-based; details: Homo sapiens; HL-60 acute promyelocytic leukemia cell line
Description: as §1, §2, §3

CALU-6 = assay: Cell viability assay, non-small cell lung carcinoma cell line CALU-6; type: cell-based; details: Homo sapiens; CALU-6 non-small cell lung carcinoma cell line
Description: as §1, §2, §3

NCI-H1437 = assay: Cell viability assay, non-small lung carcinoma cell line NCI-H1437; type: cell-based; details: Homo sapiens
Description: as §1, §2, §3

DMS114 = assay: Cell viability assay, small cell lung carcinoma cell line DMS114; type: cell-based; details: Homo sapiens, DMS-114
Description: as §1
as §2, with “Elmer). […]” for “Elmer).”

NCI-H292 = assay: Cell viability assay, mucoepidermoid pulmonary and adenocarcinoma, NCI-H292; type: cell-based; details: Homo sapiens
Description: as §1
as §2, with “Elmer). […]” for “Elmer).”

NCI-H441 = assay: Cell viability assay, mucoepidermoid pulmonary and adenocarcinoma, NCI-H441; type: cell-based; details: Homo sapiens
Description: as §1
as §2, with “Elmer). […]” for “Elmer).”

MeWo = assay: Cell viability assay, melanoma cell line MeWo; type: cell-based; details: Homo sapiens
Description: as §1
as §2, with “Elmer). […]” for “Elmer).”

brain cancer cell = assay: Cell viability assay, brain cancer cell lines (summary); type: cell-based; details: summary of Tables 3A-D; read-out: IC50s, brain cancer cell growth
Description: as §1, §2, §3

breast cancer cell = assay: Cell viability assay, breast cancer cell lines (summary); type: cell-based; details: summary of Tables 4A and 4B; read-out: IC50s, breast cancer cell growth
Description: as §1, §2, §3

lung carcinoma cell = assay: Cell viability assay, lung carcinoma cell lines (summary); type: cell-based; details: summary of Tables 7A-E; read-out: IC50s, lung carcinoma cell growth
Description: as §1, §2, §3

H69AR = assay: Cell viability assay, resistant small cell lung carcinoma cell line H69AR; type: cell-based; details: H69AR multiple drug resistant small cell lung carcinoma cell line
Description: as §1, §2, §3
The multiple drug resistant cell line H69AR obtained from ATCC, was established from NCI-H69 cells that were grown in the presence of increasing concentrations of adriamycin (doxorubicin). The H69AR cell line is approximately 50-fold resistant to adriamycin as compared to the parental NCI-H69 cell line. SND141, SND142, SND143, SND146, SND147 and SND148 inhibited the resistant cell line H69AR with IC50s below 5 μM, as presented in Table 8.

[2] = In vivo maximum tolerated dose in NOG mice
Description: In order to evaluate the general toxicity of selected SND compounds in an animal model, a maximum tolerated dose (MTD) in NOG mice has been undertaken. Three mice per group were treated daily or every other day over 8 days at various doses between 5 mg/kg and 10 mg/kg. Administration of the compounds was i.p. A stock solution of the compounds (40 mg/ml in DMSO) was prepared and frozen at −20° C. in aliquots for each treatment. […] Body weights were measured before each treatment. Mice were further observed for 1 week after the last treatment.

## COc1c(O)ccc2c(=O)cc(-c3ccc(CN4CCCC4)cc3)oc12 [SND163]
NCI-H1299
  IC50: 5.8 µM

## CN(CCCc1ccc(-c2cc(=O)c3ccc(O)c(O)c3o2)cc1)CCN1CCCCC1 [SND171, 7,8-Dihydroxy-2-(4-(3-(methyl(2-(piperidin-1-yl)ethyl)amino)propyl)phenyl)-4H-chromen-4-one dihydrochloride]
SC6
  IC50: 15 µM

## CN(CCCc1ccc(-c2cc(=O)c3ccc(O)c(O)c3o2)cc1)CCN1CCN(C)CC1 [SND173, 7,8-Dihydroxy-2-(4-(3-(methyl(2-(4-methylpiperazin-1-yl)ethyl)amino)propyl)phenyl)-4H-chromen-4-one trihydrochloride]
A375
  IC50: 10 µM
Melanoma cell lines
  IC50: < 10 µM

## COc1c(O)ccc2c(=O)cc(-c3ccc(CCCCN(C)C)cc3)oc12 [SND141, 2-(4-(4-(dimethylamino)butyl)phenyl)-7-hydroxy-8-methoxy-4H-chromen-4-one]
Panc-1
  IC50: 3.91 µM
MIA-Pa-Ca-2
  IC50: 2.3 µM
[1]
  IC50: < 10 µM

## CN(CCCCc1ccc(-c2cc(=O)c3ccc4c(c3o2)OCO4)cc1)CCCN1CCCCC1 [SND391]
U-87MG
  IC50: 5.1 µM
LN-229
  IC50: 2.8 µM
SH-SY-5Y
  IC50: 3 µM
U-251
  IC50: 3.9 µM
MDA-MB-468
  IC50: 1.2 µM
HL-60
  IC50: 2.4 µM
CALU-6
  IC50: 4 µM
NCI-H1437
  IC50: 1.4 µM
DMS114
  IC50: 1.1 µM
NCI-H292
  IC50: 0.98 µM
NCI-H441
  IC50: 1.2 µM
MeWo
  IC50: 1.9 µM
A375
  IC50: 1.3 µM
Brain cancer cell
  IC50: < 10 µM
Breast cancer cell
  IC50: < 10 µM
Lung carcinoma cell
  IC50: < 20 µM
Melanoma cell lines
  IC50: < 10 µM

## CCN(CCCCc1ccc(-c2cc(=O)c3ccc4c(c3o2)OCO4)cc1)Cc1ccccc1OC [SND394]
U-87MG
  IC50: 7.6 µM
LN-229
  IC50: 2.9 µM
U-251
  IC50: 7.6 µM
MDA-MB-468
  IC50: 3.8 µM
HL-60
  IC50: 2.8 µM
CALU-6
  IC50: 8.9 µM
NCI-H1437
  IC50: 2.1 µM
DMS114
  IC50: 3.1 µM
NCI-H292
  IC50: 1.9 µM
NCI-H441
  IC50: 3.2 µM
Brain cancer cell
  IC50: < 10 µM
Breast cancer cell
  IC50: < 10 µM
Lung carcinoma cell
  IC50: < 20 µM

## COc1c(O)ccc2c(=O)cc(-c3ccc(CCCCN4CCOCC4)cc3)oc12 [SND147, 7-hydroxy-8-methoxy-2-(4-(4-morpholinobutyl)phenyl)-4H-chromen-4-one]
CALU-6
  IC50: 12.2 µM
H69AR
  IC50: 2.6 µM
H69AR; Homo sapiens, H69AR
  IC50: < 5 µM
Panc-1
  IC50: 3.8 µM
MIA-Pa-Ca-2
  IC50: 2.02 µM
[2]; 8-10 mg/kg i.p., daily or every other day over 8 days
  tolerability at the highest dose administered: well tolerated
[2]; mouse, in vivo, ip, repeated i.p. administration, MTD not reached, read-out: maximum tolerated dose (MTD), estimated
  MTD at 8 days: > 10 mg/kg
Lung carcinoma cell
  IC50: < 20 µM
[1]
  IC50: < 10 µM
